Measured values from patent publication US20250197438A1, “IMMUNOREGULATORY AMIDE DERIVATIVE WITH IMPROVED MATERIAL PROPERTIES” (AEVIS BIO, INC., priority 2021, published 2025).
“Also recorded” adds a separate entry of the source.

Legend:
[1] = Water solubility, stepwise addition of water, classed by USP23; type: physicochemical
Experimental: 3 mg of lenalidomide (Combi-Block, Inc. San Diego, CA, USA) and ribose-lenalidomide were each weighed and placed in a 1.5 mL Eppendorf tube, 0.03 mL of water was added thereto, and then the mixture was vortexed for one minute and then centrifuged at 15,000 rpm for 1 minute, and an undissolved compound was precipitated. When the precipitated compound was visible, 0.03 mL of water was added, and the above process was repeated.
The solubility was determined by Table 1 as defined in United States Pharmacopeia 23 (USP23).

multiple myeloma = settings: combination of lenalidomide and dexamethasone; cited from earlier work
[2] = system: choroidal neovascularization lesion; test: Macular degeneration treatment effect, laser-induced mouse CNV model (wet AMD); type: in vivo; settings: for CNV lesion, intravitreal administration: once immediately after laser irradiation, fluorescent staining of blood vessels
Experimental: It was intended to confirm the healing efficacy of a lesion in a mouse CNV model, which is a wet senile macular degeneration (wet AMD) model.
To this end, five C57BL/6 (Koatech, Korea) male mice (aged 7 weeks) were used, and after 1 week of acclimation, the 8-week-old mice were anesthetized using ketamine hydrochloride (100 mg/kg, I.P.), and a drop of Mydriacyl (tropicamide) eye drops was placed on the right eye to induce mydriasis. After 3 minutes, the mouse was placed on a stand attached to a slit lamp, and a coverslip was put on the right eye to serve as a contact lens. After illuminating the optic nerve head using the slip lamp, four laser spots (200 mW, 50 μm spot size, 100-ms duration) around the optic nerve head were irradiated using a 532 nm laser device (Irdiex Oculight Tx, USA) attached to the slit lamp.
After forming a choroidal neovascularization lesion as described above, a solution prepared by dissolving ribose-lenalidomide in PBS was administered to the lesion. For intravitreal administration, 1.5 μL of the solution with a concentration of 0.2 μg/mL was administered once immediately after laser irradiation using a 25 μL Hamilton syringe with a 33G needle. Meanwhile, ribose-lenalidomide was dissolved in PBS to have a concentration of 2 mg/mL, prepared in the form of eye drops, administered four times a day, and then 7 days or 14 days after administration, efficacy was confirmed through fluorescent staining of blood vessels.
Fluorescent staining was performed using Heidelberg Spectralis HRA+OCT device (Heidelberg, Germany) equipment, the mouse was anesthetized using ketamine hydrochloride (100 mg/kg, I.P.) and xylazine (10 mg/kg, I.P.), a drop of Mydriacyl (tropicamide) eye drops was placed on the right eye to induce mydriasis, 0.05 mL of 10% fluorescite (Alcon, USA) was administered via I.P. administration to stain blood vessels. Fluorescent images were taken 10 minutes after fluorescite injection.

MM.1S cells = test: Tumor cell killing effect, CCK analysis; type: cell-based, human; settings: 0 to 10 μM, 3 days, dissolved in DMSO or D.W.
Experimental: To this end, a human multiple myeloma cell line, MM.1S (CRL-2974), was purchased from the American Type Culture Collection (ATCC, Manassas, VA, USA), and incubated using a RPMI1640 medium (Corning, MD, USA) supplemented with a 10% bovine fetal serum (Corning, MD, USA), 100 U/mL penicillin (Corning, MD, USA), and 100 μg/mL streptomycin (Corning, MD, USA) at 37° C. in a 5% CO2 incubator for 24 hours. The cells were seeded at 1×10^4 cells/well in a 96-well plate, incubated for 24 hours, further incubated for 3 days after treatment with 0, 0.005, 0.014, 0.041, 0.123, 0.37, 1.111, 3.333, or 10 μM of ribose-lenalidomide dissolved in DMSO or D.W., and then analyzed using a CCK analysis kit (Dojindo, Japan) according to the manufacturer's instructions.

cereblon (CRBN) protein = biological target: T1, cereblon (CRBN) protein (Homo sapiens, UniProt Q96SW2); test: CRBN binding affinity, Alpha assay of competitive inhibition of CRBN-dBET1 binding; settings: compared with the base lenalidomide or pomalidomide
T1 construct: FLAG; purchased BPS Bioscience #79770
Description: An immunomodulatory amide-type compound such as lenalidomide is known to act by binding to the cereblon (CRBN) protein. Therefore, the binding affinity of ribose-lenalidomide for the cereblon (CRBN) protein was compared with that of its base, lenalidomide (Combi-Block, Inc. San Diego, CA, USA), for the cereblon (CRBN) protein.

Aiolos = biological target: T2, Aiolos (Homo sapiens, UniProt Q96SW2+Q9UKT9); test: Aiolos degradation in MM.1S cells, western blot; type: cell-based; settings: 1 μM or 10 μM, 24 hours
T2 construct: endogenous in cells; host or cells: MM.1S (ATCC CRL-2974)
Experimental: (§1) It is known that a thalidomide-based compound binds to an E3 ligase, cereblon (CRBN), and decomposes transcription factors Aiolos and Ikaros as substrates, thereby regulating the function of immune cells. Therefore, to confirm whether ribose-lenalidomide still maintains its immunomodulatory function, the Aiolos and Ikaros degradation effect was compared with its base, lenalidomide.
(§2) After seeding the cells and incubating the cells for 24 hours, each compound was further incubated for 24 hours after treatment with 1 μM or 10 μM of each compound. The cells were lysed in a RIPA buffer containing a protease inhibitor cocktail (Thermo Fisher Scientific) and centrifuged at 14,000 rpm for 15 minutes at 4° C., thereby obtaining a cell extract. The cell extract was loaded at the same amount, separated using SDS-PAGE, and transferred to a PVDF membrane. The protein-transferred membrane was blocked using skim milk, subjected to o/n incubation with a primary antibody at 4° C., and incubated with an HRP-attached secondary antibody at 4° C. for 1 hour. The cells were washed with TBS-T three times between steps. Detection was performed by applying a chemiluminescence reagent (Thermo Fisher Scientific), and confirmation was performed using Chemidoc (iBright CL1000, Invitrogen, CA, USA).

Ikaros = biological target: T3, Ikaros (Homo sapiens, UniProt Q13422+Q96SW2); test: Ikaros degradation in MM.1S cells, western blot; type: cell-based; settings: 1 μM or 10 μM, 24 hours
T3 construct: endogenous in cells; host or cells: MM.1S (ATCC CRL-2974)
Experimental: as §1, §2

CK1α = biological target: T4, CK1α (Homo sapiens, UniProt P48729+Q96SW2); test: CK1α degradation in MM.1S cells, western blot; type: cell-based; settings: 1 μM or 10 μM, 24 hours
T4 construct: endogenous in cells; host or cells: MM.1S (ATCC CRL-2974)
Experimental: as §2

SALL4 = biological target: T5, SALL4 (Homo sapiens, UniProt Q96SW2+Q9UJQ4); test: SALL4 degradation in Tera-1 cell line (HTB-105), western blot; type: cell-based; settings: 1 or 10 μM, compared with the base compound
T5 construct: endogenous in cells; host or cells: Tera-1 (ATCC HTB-105)
Experimental: The cell extract was loaded at the same amount, separated using SDS-PAGE, and transferred to a PVDF membrane. The protein-transferred membrane was blocked using skim milk, subjected to o/n incubation with a primary antibody at 4° C., and incubated with an HRP-attached secondary antibody at 4° C. for 1 hour. The cells were washed with TBS-T three times between steps. Detection was performed by applying a chemiluminescence reagent (Thermo Fisher Scientific), and confirmation was performed using Chemidoc (iBright CL1000, Invitrogen, CA, USA).

Nc1cccc2c1CN(C1CCC(=O)NC1=O)C2=O (racemic) [lenalidomide, (RS)-3-(4-amino-1-oxo-1,3-dihydro-2H-isoindol-2-yl)piperidine-2,6-dione, reference compound]
water solubility in words ([1]; D.W.): completely insoluble in water; also recorded: barely dissolved in D.W
disease-free survival period (multiple myeloma): 13.4 months
overall survival period (multiple myeloma): 38 months

O=C1CCC(N2Cc3c(/N=C/[C@H](O)[C@@H](O)[C@H](O)[C@H](O)CO)cccc3C2=O)C(=O)N1 (stereo partly drawn) [glucose-lenalidomide (type 1)]
CNV lesion, intravitreal administration [2]: macular degeneration treatment effect was confirmed

O=C1CCC(N2C(=O)c3cccc(NC[C@H](O)[C@@H](O)[C@H](O)[C@H](O)CO)c3C2=O)C(=O)N1 (stereo partly drawn) [glucose-pomalidomide (type 2)]
tumor cell killing effect / viability of MM.1S cells (MM.1S cells): not significantly reduced

O=C1CCC(N2Cc3c(/N=C/[C@H](O)[C@H](O)[C@H](O)CO)cccc3C2=O)C(=O)N1 (stereo partly drawn) [ribose-lenalidomide (type 1)]
solubility term based on USP 23 ([1]; water): freely soluble
solubility at 1 min ([1]; water, thermodynamic from solid, D.W., no visible precipitate after vortexing and centrifugation): ≥ 100 mg/mL
CRBN binding affinity (cereblon (CRBN) protein): improved binding affinity
tumor cell killing effect / viability of MM.1S cells (MM.1S cells): effective in killing MM.1S cells
Aiolos degradation effect (Aiolos): almost similar to lenalidomide
Ikaros degradation effect (Ikaros): almost similar to lenalidomide
CK1α degradation effect (CK1α): almost similar to lenalidomide
SALL4 degradation effect (teratogenic side effect) (SALL4): inhibited SALL4 degradation effect compared to lenalidomide
CNV lesion, eye drop administration ([2]; eye drops 2 mg/mL in PBS, four times a day, 7 or 14 days): distinct decrease in the lesion
CNV lesion, intravitreal administration [2]: distinct decrease in the lesion
